Experimental data taken from US20250353873A1, “COMPOUNDS AND METHODS FOR MODULATING APOE EXPRESSION” (Ionis Pharmaceuticals, Inc., priority 2024, published 2025).
Strand notation (5' to 3'): a small letter for the sugar, then the base; units joined by * are phosphorothioate-linked, units joined directly phosphodiester-linked; [ ] holds rarer units or linkages, { } end groups; capitals alone tell only the bases. [ms] = mesyl phosphoramidate linkage; e = 2'-O-(2-methoxyethyl) (MOE); k = constrained ethyl (cEt); [5mC] = 5-methylcytosine; d = 2'-deoxy (DNA)

Legend:
[1] = tested on: human APOE RNA; test: Dose-dependent inhibition of human APOE RNA in HepG2 cells, electroporation, 50,000 cells per well, RT-PCR normalized to GAPDH (Example 4, Tables 8-10); format: cell-based
Summary of the method: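 HepG2 cells, 50,000 per well, electroporated with modified oligonucleotide at various concentrations. APOE RNA quantified by RT-PCR with human primer probe set RTS3073, normalized to GAPDH. Values are percent APOE RNA relative to untreated control cells.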

[2] = tested on: human APOE RNA; test: Activity in APOE C57BL/6NTac-Apoeem7250 knock-in mice, single ICV bolus, 16 weeks (Example 12); format: in vivo; conditions: single ICV bolus 300 μg, 16 weeks post treatment, normalized to mouse Ppia
Summary of the method: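 Knock-in mice (3-4 per group) received one ICV bolus of 300 μg oligonucleotide, PBS as control. After 16 weeks, human APOE RNA in cortex and spinal cord measured by RT-qPCR, normalized to mouse Ppia, and reported as % of PBS control.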

[3] = tested on: human APOE RNA; test: Potency (dose response, ED50) in APOE C57BL/6NTac-Apoeem7250 knock-in mice, 4 weeks (Example 14); format: in vivo
Summary of the method: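 Knock-in mice (3–4 per group) received a single ICV bolus of oligonucleotide, with PBS as control. At four weeks, cortex and spinal cord RNA was analysed by RT-qPCR with a human primer probe set, normalized to mouse Ppia, and expressed as % PBS control. ED50 was calculated from the dose response.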

[4] = tested on: human APOE RNA; test: Potency (dose response, ED50) in APOE C57BL/6NTac-Apoeem7250 knock-in mice, 8 weeks (Example 15); format: in vivo
Protocol: Modified oligonucleotides described above were tested in the APOE C57BL/6NTac-Apoeem7250 knock-in mouse model described above.
APOE C57BL/6NTac-Apoeem7250 knock-in mice were divided into groups of 3-4 mice each. A group of 4 mice received a single ICV bolus with PBS as a negative control.
Eight weeks post treatment, mice were sacrificed, and RNA was extracted from cortical brain tissue and spinal cord for quantitative real-time RT-PCR analysis of RNA expression of […] using human primer probe set RTS3073 (described herein above). APOE RNA levels were normalized to mouse Ppia. Mouse Ppia was amplified using primer probe set m_cyclo24 (described herein above). Results are presented as percent human APOE RNA relative to the amount of APOE RNA in PBS treated animals, (% control). N.C. indicates values that were not calculated.
The half maximal effective dose (ED50) of each modified oligonucleotide was calculated using GraphPad Prism 10 software (GraphPad Software, San Diego, CA).

[5] = tested on: human APOE RNA; test: Duration of action study in APOE C57BL/6NTac-Apoeem7250 knock-in mice (Example 16); format: in vivo; conditions: 300 μg ICV
Summary of the method: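 Knock-in mice (2-4 per group) received a single ICV bolus of 300 μg oligonucleotide or PBS. At various timepoints, cortex and spinal cord human APOE RNA was measured by RT-qPCR (RTS3073), normalized to mouse Ppia and expressed as % of PBS control.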

[6] = cortex, single ICV bolus, GraphPad Prism 10

For “Aes^mCeoTeoTesGesGksTdsGdzAdzAdzTds^mCdsTdsTdsTdsAdzTksTksAesAe (eA*e[5mC]eTeT*eG*kG*dT*dG[ms]dA[ms]dA[ms]dT*d[5mC]*dT*dT*dT*dA[ms]kT*kT*eA*eA) [Compound No. 1757576]”, the “APOE RNA (% UTC)” value ([1]; 5 nM, HepG2, electroporation, 16-hour treatment) was 86 % UTC, the “APOE RNA (% UTC)” value ([1]; 13 nM, HepG2, electroporation, 16-hour treatment) was 74 % UTC and the “APOE RNA (% UTC)” value ([1]; 33 nM, HepG2, electroporation, 16-hour treatment) was 80 % UTC. For the same substance, the “APOE RNA (% UTC)” value ([1]; 82 nM, HepG2, electroporation, 16-hour treatment) was 84 % UTC, the “APOE RNA (% UTC)” value ([1]; 205 nM, HepG2, electroporation, 16-hour treatment) was 74 % UTC and the “APOE RNA (% UTC)” value ([1]; 512 nM, HepG2, electroporation, 16-hour treatment) was 61 % UTC. The “APOE RNA (% UTC)” value ([1]; 1,280 nM, HepG2, electroporation, 16-hour treatment) was 45 % UTC, the “APOE RNA (% UTC)” value ([1]; 3,200 nM, HepG2, electroporation, 16-hour treatment) was 32 % UTC and the “APOE RNA (% UTC)” value ([1]; 8,000 nM, HepG2, electroporation, 16-hour treatment) was 22 % UTC. The “APOE RNA (% UTC)” value ([1]; 20,000 nM, HepG2, electroporation, 16-hour treatment) was 7 % UTC, the IC50 ([1]; HepG2, electroporation, 16-hour treatment) was 820 nM and the “APOE RNA (% UTC) 5 nM” value ([1]; HepG2 cells, electroporation, 24-hour treatment, 5 nM, Table 8) was 86 % UTC. The “APOE RNA (% UTC) 13 nM” value ([1]; HepG2 cells, electroporation, 24-hour treatment, 13 nM, Table 8) was 81 % UTC, the “APOE RNA (% UTC) 33 nM” value ([1]; HepG2 cells, electroporation, 24-hour treatment, 33 nM, Table 8) was 63 % UTC and the “APOE RNA (% UTC) 82 nM” value ([1]; HepG2 cells, electroporation, 24-hour treatment, 82 nM, Table 8) was 67 % UTC. For the same substance, the “APOE RNA (% UTC) 205 nM” value ([1]; HepG2 cells, electroporation, 24-hour treatment, 205 nM, Table 8) was 46 % UTC, the “APOE RNA (% UTC) 512 nM” value ([1]; HepG2 cells, electroporation, 24-hour treatment, 512 nM, Table 8) was 23 % UTC and the “APOE RNA (% UTC) 1,280 nM” value ([1]; HepG2 cells, electroporation, 24-hour treatment, 1,280 nM, Table 8) was 24 % UTC. For the same substance, the “APOE RNA (% UTC) 3,200 nM” value ([1]; HepG2 cells, electroporation, 24-hour treatment, 3,200 nM, Table 8) was 11 % UTC, the “APOE RNA (% UTC) 8,000 nM” value ([1]; HepG2 cells, electroporation, 24-hour treatment, 8,000 nM, Table 8) was 15 % UTC and the “APOE RNA (% UTC) 20,000 nM” value ([1]; HepG2 cells, electroporation, 24-hour treatment, 20,000 nM, Table 8) was 2 % UTC. For the same substance, the IC50 ([1]; reduction of human APOE RNA, HepG2 cells, electroporation, 24-hour treatment, Table 8) was 140 nM, the “APOE RNA (% control) Cortex” value ([2]; cortex) was 45 % control and the “APOE RNA (% control) Spinal Cord” value ([2]; spinal cord) was 14 % control. The “APOE RNA (% control) Cortex” value ([3]; cortex, ICV dose 10 μg) was 108 % control, the “APOE RNA (% control) Cortex” value ([3]; cortex, ICV dose 30 μg) was 121 % control and the “APOE RNA (% control) Cortex” value ([3]; cortex, ICV dose 100 μg) was 63 % control. The “APOE RNA (% control) Cortex” value ([3]; cortex, ICV dose 300 μg) was 37 % control, the “APOE RNA (% control) Cortex” value ([3]; cortex, ICV dose 700 μg) was 31 % control and the “ED 50 (μg) Cortex” value [3, 6] was 235.5 µg. For the same substance, the “APOE RNA (% control) Spinal Cord” value ([3]; spinal cord, ICV dose 10 μg) was 58 % control, the “APOE RNA (% control) Spinal Cord” value ([3]; spinal cord, ICV dose 30 μg) was 55 % control and the “APOE RNA (% control) Spinal Cord” value ([3]; spinal cord, ICV dose 100 μg) was 23 % control. For the same substance, the “APOE RNA (% control) Spinal Cord” value ([3]; spinal cord, ICV dose 300 μg) was 20 % control, the “APOE RNA (% control) Spinal Cord” value ([3]; spinal cord, ICV dose 700 μg) was 18 % control and the “ED 50 (μg) Spinal Cord” value ([3]; spinal cord, single ICV bolus, GraphPad Prism 10) was 23.0 µg. The “APOE RNA (% control) Cortex” value ([4]; cortex, ICV dose 10 μg) was 93 % control, the “APOE RNA (% control) Cortex” value ([4]; cortex, ICV dose 30 μg) was 92 % control and the “APOE RNA (% control) Cortex” value ([4]; cortex, ICV dose 100 μg) was 52 % control. The “APOE RNA (% control) Cortex” value ([4]; cortex, ICV dose 300 μg) was 30 % control, the “APOE RNA (% control) Cortex” value ([4]; cortex, ICV dose 700 μg) was 18 % control and the “ED 50 (μg) Cortex” value [4, 6] was 135.7 µg. The “APOE RNA (% control) Spinal Cord” value ([4]; ICV dose 10 μg) was 33 % control, the “APOE RNA (% control) Spinal Cord” value ([4]; ICV dose 30 μg) was 15 % control and the “APOE RNA (% control) Spinal Cord” value ([4]; ICV dose 100 μg) was 13 % control. For the same substance, the “APOE RNA (% control) Spinal Cord” value ([4]; ICV dose 300 μg) was 9 % control, the “APOE RNA (% control) Spinal Cord” value ([4]; ICV dose 700 μg) was 9 % control and the “APOE RNA (% control) Cortex” value ([5]; 7 days post-dose) was 45 % control. For the same substance, the “APOE RNA (% control) Cortex” value ([5]; 14 days post-dose) was 32 % control, the “APOE RNA (% control) Spinal Cord” value ([5]; 7 days post-dose) was 42 % control and the “APOE RNA (% control) Spinal Cord” value ([5]; 14 days post-dose) was 25 % control.
